Clc1ccc2c(Cl)ccnc2c1
Conditions	solubility (mole fraction)
in THF, 299.4 K	0.0683
in THF, 303.2 K	0.0701
in THF, 309.1 K	0.0745
in THF, 313.3 K	0.081
in THF, 318.1 K	0.0887
in THF, 323.2 K	0.1
in THF, 328.3 K	0.119
in THF, 333.4 K	0.14
in acetone, 299.2 K	0.0591
in acetone, 303.2 K	0.0614
in acetone, 309.1 K	0.0658
in acetone, 313.3 K	0.0725
in acetone, 318.1 K	0.0818
in acetone, 323.2 K	0.0954
in acetone, 328.3 K	0.113
in acetonitrile, 299.8 K	0.00603
in acetonitrile, 303.2 K	0.00814
in acetonitrile, 308.1 K	0.0127
in acetonitrile, 313.3 K	0.0208
in acetonitrile, 318.1 K	0.0307
in acetonitrile, 323.2 K	0.0489
in acetonitrile, 328.3 K	0.0788
in acetonitrile, 333.4 K	0.13
in ethanol, 299.8 K	0.0113
in ethanol, 303.2 K	0.0145
in ethanol, 308.1 K	0.0224
in ethanol, 313.3 K	0.0364
in ethanol, 318.1 K	0.0564
in ethanol, 323.2 K	0.0886
in ethanol, 328.3 K	0.135
in ethanol, 333.4 K	0.208
in water, 298 K	2.84e-05
in water, 303.3 K	2.9e-05
in water, 308.2 K	3.01e-05
in water, 313.1 K	3.21e-05
in water, 318.3 K	3.45e-05
in water, 323.3 K	3.88e-05
in water, 327.7 K	4.2e-05
in water, 333.3 K	4.85e-05
